Common to all, as to format: functional
Assay [1] is filed under the species Mus musculus. Nature of the assay: Anti-oxidative activity against ALS transgenic mouse model harbouring human G93A SOD1 (B6SJL-TgN(SOD1-G93A)1Gur mutant assessed as survival relative to control.
The species entered for assay [2] is Mus musculus. Nature of the assay: Anti-oxidative activity against ALS mouse model assessed as animal survival relative to control.
Assay [3] is filed under the species Mus musculus. Nature of the assay: Anti-excitotoxic activity against ALS mouse model assessed as animal survival relative to control.
The target of assay [4] is Superoxide dismutase [Cu-Zn] (Homo sapiens) (UniProt P00441). Nature of the assay: Effect on human SOD1 protein homeostasis in ALS mouse model assessed as survival relative to control.
For assay [5], the species on record is Mus musculus. The experiment in a line: Anti-excitotoxic activity against ALS transgenic mouse model harbouring human G93A SOD1 (B6SJL-TgN(SOD1-G93A)1Gur mutant assessed as survival relative to control.
For assay [6], the species on record is Mus musculus. The experiment in a line: Anti-inflammatory activity against ALS mouse model harbouring human G93A SOD1 mutant assessed as survival relative to control.
The species entered for assay [7] is Mus musculus. The experiment in a line: Anti-inflammatory activity against ALS mouse model assessed as animal survival relative to control.
The species named for assay [8] is Mus musculus. The experiment in a line: Anti-inflammatory activity against ALS transgenic mouse model harbouring human G93A SOD1 (B6SJL-TgN(SOD1-G93A)1Gur mutant assessed as survival relative to control.
Assay [9] is filed under the species Mus musculus. The experiment in a line: Effect on mitochondrial protection in ALS mouse model assessed as survival relative to control.
For assay [10], the species on record is Mus musculus. Nature of the assay: Anti-apoptotic activity against ALS mouse model expressing human G93A SOD1 mutant assessed as survival relative to control.
For assay [11], the species on record is Mus musculus. Nature of the assay: Anti-inflammatory activity against ALS B6SJLF1/J mouse model assessed as animal survival relative to control.
For assay [12], the species on record is Mus musculus. Nature of the assay: Anti-apoptotic activity against ALS mouse model assessed as animal survival relative to control.

Experimental findings from ChEMBL document CHEMBL5252524, “Therapeutic progress in amyotrophic lateral sclerosis-beginning to learning” (2016) are described below.

Superoxide dismutase [Cu-Zn] (Homo sapiens), sequence (P00441 whole entry): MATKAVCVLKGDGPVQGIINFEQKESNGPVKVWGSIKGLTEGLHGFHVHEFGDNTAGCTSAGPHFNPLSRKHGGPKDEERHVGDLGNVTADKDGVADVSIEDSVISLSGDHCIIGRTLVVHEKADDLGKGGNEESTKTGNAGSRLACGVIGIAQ

In the case of `CC(=O)N[C@@H](CS)C(=O)O` [ACETYLCYSTEINE], the Survival in the assay filed under Mus musculus [1] stood at 7%.
Consider `C#CCN(C)Cc1ccc(O)c2ncccc12`, for which the Survival in the assay filed under Mus musculus [2] worked out at 6%.
Take `Nc1nc2ccc(OC(F)(F)F)cc2s1` [RILUZOLE]: the Survival in the assay filed under Mus musculus [3] is 10%.
As to `[O-][n+]1cccc(/C(Cl)=N/OC[C@H](O)CN2CCCCC2)c1`, the Survival in assay [4] was 9%.
`CC12CC3CC(C)(C1)CC(N)(C3)C2` [MEMANTINE]: in the assay listed under Mus musculus [5], the Survival is 5%.
Consider `CN1CCCCC1Cn1cc(C(=O)c2cc([N+](=O)[O-])ccc2I)c2ccccc21` (centres undefined), for which the Survival in the assay listed under Mus musculus [6] was 10%.
As for `Cc1ccc(-c2cc(C(F)(F)F)nn2-c2ccc(S(N)(=O)=O)cc2)cc1` [CELECOXIB], the Survival in the assay filed under Mus musculus [7] is recorded as 25%.
As for `CC1=C(O)C(=O)C=C2C1=CC=C1[C@@]2(C)CC[C@@]2(C)[C@@H]3C[C@](C)(C(=O)O)CC[C@]3(C)CC[C@]12C` [CELASTROL], the Survival in the assay filed under Mus musculus [8] came to 9%.
With `CN(CC(=O)O)C(=N)N.O`, in the assay filed under Mus musculus [9], the Survival was 15%.
For the molecule `COc1ccc2[nH]cc(CCNC(C)=O)c2c1` [MELATONIN], the Survival in the assay listed under Mus musculus [10] was 7%.
On to `Nc1cccc2c1CN(C1CCC(=O)NC1=O)C2=O` (centres undefined) [LENALIDOMIDE], for which the Survival in the assay listed under Mus musculus [8] was 18%.
As for `O=C1CCC(N2C(=O)c3ccccc3C2=O)C(=O)N1` (centres undefined) [THALIDOMIDE], the Survival in the assay filed under Mus musculus [7] turned out to be 12%.
Turning to `O=C([O-])[O-].[Li+].[Li+]`, the Survival in assay [4] turned out to be 36%.
Regarding `CC(C)CCC[C@@H](C)[C@H]1CC[C@H]2[C@@H]3CCC4=CC(=NO)CC[C@]4(C)[C@H]3CC[C@]12C` [OLESOXIME], the Survival in the assay listed under Mus musculus [9] is given as 10%.
Take `COC1=C(OC)C(=O)C(CCCCCCCCCC[P+](c2ccccc2)(c2ccccc2)c2ccccc2)=C(C)C1=O.CS(=O)(=O)[O-]` [MITOQUINONE MESYLATE]: in the assay listed under Mus musculus [1], the Survival amounted to 4%.
Turning to `CO/N=C(\C(=O)N[C@@H]1C(=O)N2C(C(=O)O)=C(CSc3nc(=O)c(O)nn3C)CS[C@H]12)c1csc(N)n1` [CEFTRIAXONE], the Survival in the assay listed under Mus musculus [5] was found to be 8%.
As for `CCc1ccc(CCOc2ccc(CC3SC(=O)NC3=O)cc2)nc1` (centres undefined) [PIOGLITAZONE], in the assay filed under Mus musculus [11], the Survival came to 8%.
With `CN(C)c1ccc(O)c2c1C[C@H]1C[C@H]3[C@H](N(C)C)C(O)=C(C(N)=O)C(=O)[C@@]3(O)C(O)=C1C2=O` [MINOCYCLINE], in the assay listed under Mus musculus [12], the Survival amounted to 6%.
On the same count and under the same terms, with `O=C([O-])CCCc1ccccc1.[Na+]` [SODIUM PHENYLBUTYRATE] the figure was 22%.
